Assay [1] deals with delayed type hypersensitivity. Nature of the assay: Mouse Delayed Type Hypersensitivity Reaction Suppression Test-3 (administration into cerebral ventricles). In kind it is in vivo. The following applies: 5×10^-8 mol/mouse into cerebral ventricles; BALB/c. The text has this: BALB/c mice (male, 7 weeks old) were used, and each group consisted of 4-5 mice. Spleen cells (1×10^7) obtained from a donor mouse (C57BL/6) was subcutaneously administered to sensitize the mice. On Day 7 from the sensitization, the spleen cells (5×10^6) of the donor were subcutaneously administered on the right footpad and spleen cells (5×10^6) obtained from a mouse of the same strain as the recipient mice were subcutaneously administered on the left footpad. Twenty four hours later, the thicknesses of the right and left footpads were measured with a dial thickness gage, and the difference in thicknesses of the right and left footpads before the induction of the reaction and 24 hours after the induction of the reaction was employed as the index of the degree of the reaction.
The test compound was dissolved in water and 5×10^-8 mol/mouse was administered into cerebral ventricles. In the control group, water alone was administered similarly. The dose was 5 μl/mouse in both the study groups and the control group.

The test system of assay [2] is delayed type hypersensitivity. Kind of assay: Mouse Delayed Type Hypersensitivity Reaction Suppression Test-1 (SRBC). The class given is in vivo. The following applies: SRBC sensitization; subcutaneous, everyday from 3 days before sensitization, totally 8 days; BALB/c. On the procedure: BALB/c mice (male, 7 weeks old) were used. The mice were classified into groups depending on the body weight, each group consisting of 7-8 mice. Each of the mice was sensitized by subcutaneously administering […] of SRBC (8×10^8 in saline) on the heel of the left hing leg. On day 4 from the sensitization, 25 μl of SRBC (8×10^9 in saline) was subcutaneously administered on the right footpad so as to induce delayed type hypersensitivity. The difference in the thicknesses of the right footpad before the induction of reaction and 24 hours after the induction of the reaction was employed as an index of the degree of the reaction.
The test compound was dissolved in 10% DMSO-water and was subcutaneously administered everyday from 3 days before the sensitization to the day of induction of the reaction, totally 8 days. In the control group, 10% DMSO-water alone was administered in the same manner. The volume of administration was 5 ml/kg in both study groups and in the control group.
The % suppression of the delayed type hypersensitivity reaction was calculated according to the following equation: [formula]
wherein A means the difference in the thickness of the right hind leg before and after the reaction in control group, and B means the difference in the thickness of the right hind leg before and after the reaction in the group to which the test compound was administered.

The structures appear in SMILES notation.

Consider `Oc1ccc2c3c1O[C@H]1c4[nH]c5ccccc5c4C[C@@]4(O)[C@@H](C2)N(CC2CC2)CC[C@]314` [NTI, reference compound], for which the “% Suppression” value is on record as 40% in assay [1] and “did not suppress” in assay [2].
